Laboratory results from patent publication US20150148387A1, “METHODS OF TREATMENT, DIAGNOSIS AND […] METHA[…] WHICH TARGET CERAMIDE METABOLIC […] AND […] SENESCENCE” (priority 2012, published 2015).

Key:
[1] = test system: primary mouse embryonic fibroblasts (MEF); assay type: cell-based
Protocol: Cells were washed with ice-cold phosphate-buffered saline (PBS) and scraped into 0.5 ml of methanol/water (1:1, vol:vol) containing the internal standards listed below. Protein concentrations were measured using the BCA protein assay (Pierce, Rockford, Ill., USA). Lipids were extracted with chloroform/methanol (2:1, vol:vol; 1.0 mL). The organic phases were collected, dried under nitrogen and dissolved in methanol for LC/MS analyses.
Helium was used as collision gas. […] Mobile phase composition was as described above.
Mouse embryonic fibroblasts (MEFs) were prepared from mice embryo as previously reported. Briefly, pregnant mice at day 13 post coitum were sacrificed and the uteri were dissected out. Each embryo was separated from the placenta and the head and visceral tissues were removed. The remaining body was minced in PBS and incubated with 0.1 mM trypsin/1 mM EDTA at 37° C. for 15 min. Two volumes of Dulbecco's Modified Eagle Medium (DMEM) containing 10% fetal bovine serum (FBS) was added and stood for 5 minutes to settle down large pieces of unbroken tissues. The supernatant was then removed and centrifuged at 200×g for 5 min and suspended in fresh DMEM containing 10% FBS. Cells were cultured at 37° C. with 5% CO2.

cytochrome P450 (CYP) = assay: Cell-associated methamphetamine content in MEF with CYP inhibitor (LC/MS); details: methamphetamine 1 mM 24 h, inhibitor 1-10 μM
[2] = test system: primary mouse embryonic fibroblasts (MEF); assay: ROS production in MEF (CM-H2DCFDA); assay type: cell-based; details: CYP inhibitors with methamphetamine
Protocol: Production of ROS was measured using the fluorescent probe CM-H2DCFDA (Invitrogen). This carboxy derivative of fluorescein carries additional negative charges that improve its retention compared to noncarboxylated forms. For these experiments, MEFs were grown in DMEM without phenol red, for which anti-oxidative properties have been reported. Cells were plated to subconfluence in 12-well plates, washed 3 times with pre-warmed PBS and loaded for 30 min at 37° C./5% CO2 with […] CM-H2DCFDA in DMEM without phenol red (loading medium). Then the loading medium was removed and pre-warmed fresh medium containing the different CYP450 inhibitors in presence or absence of methamphetamine was added. Fluorescence (excitation at 485 nm, emission at 530 nm) was analyzed immediately, cells were incubated at 37° C./5% CO2, and fluorescence was analyzed at the indicated time points. ROS rate versus control (%) was calculated subtracting the percentage of ROS increasing from time zero in the methamphetamine-treated samples to the percentage of ROS increasing from time zero in vehicle-treated samples.

Clc1ccccc1C(c1ccccc1)(c1ccccc1)n1ccnc1 [clotrimazole]
baseline ceramide content ([1]; MEF without methamphetamine, inhibitor 10 μM, n=3, […]): 49.2±3 pmol-mg^−1 protein
methamphetamine-induced ceramide accumulation ([1]; MEF, inhibitor 1-10 μM): decreased
levels of non-metabolized methamphetamine (cytochrome P450 (CYP)): increased
release of ROS evoked by methamphetamine [2]: prevented
